Measurements: article PMC8175484, “Identification and function of ETH receptor networks in the silkworm Bombyx mori” (Scientific Reports, 2021)

Key:
[1] = system: ETHR-A (BNGR-A6-A); assay: Aequorin-based calcium mobilization assay, ETHR-A transiently expressed in CHO-K1 cells; assay type: cell-based, Bombyx mori
Protocol: Pharmacological characterization of ETHR-A (BNGR-A6-A) and ETHR-B (BNGR-A6-B) receptors were carried out in the Chinese hamster ovary (CHO-K1) cells. For expression in CHO-K1 cells, the entire open reading frame for each ETHR was inserted into pcDNA3.1 ( +) vector (Invitrogen, Carlsbad, CA, USA) with a mammalian Kozak translation initiation sequence incorporated at 5´ end and confirmed by DNA sequencing prior to use. The primers used to clone BNGR-A6-A and BNGR-A6-B are listed in Supplementary Table S1 online. For the assay, each receptor was expressed together with the bioluminescent calcium-sensitive reporter aequorin and chimeric Gqs alpha subunit protein that couples receptor activation to the phospholipase C and intracellular Ca^2+ mobilization. […]
The procedures used for the receptor assays were described previously. […] Following cell application to a well, emitted luminescence corresponding to the ligand-induced intracellular Ca^2+ release was monitored in 0.5 s intervals for 20 s using the GloMax-Multi Detection System (Promega, Madison, WI, USA). […] All experiments were replicated three times and collected output data calculated and further analyzed in Excel (Microsoft, Redmond, WA, USA) and GraphPad Prism 6 software (GraphPad Software Inc.). The concentration-dependent response curves, as well as the corresponding EC50 values were calculated using the Prism software. […]

[2] = system: isolated CNS of pharate 5th instar larvae; assay: Electrophysiology: extracellular motor bursts recorded in nerves of abdominal ganglia of the isolated intact or desheathed CNS; parameters: species or system Bombyx mori; settings: for time to burst patterns characteristic for pre-ecdysis I and II in dorsal and ventral nerves: isolated nerve cords; for ecdysis burst pattern, CCAP or MIPs applied alone: CCAP alone n = 4, MIP-I only or MIP-I-VII mixture n = 5
Protocol: Specific roles of various neuropeptides produced by the ETHR neurons were determined using electrophysiology technique in the isolated intact or desheathed CNS. Sharp forceps were used to remove the neurolema on the dorsal or ventral side of selected ganglia under physiological saline (see above) and dorsal or ventral nerves of the abdominal ganglia (AG1-7) were attached to plastic suction electrodes. A mixture or individual neuropeptides were then applied in a 300 μl saline bath and induced extracellular motor bursts were recorded using differential AC amplifier 1700 (A-M Systems, Carlsborg, WA, USA) and Axoscope program (Axon Instruments, Union City, CA, USA). Synthetic peptides used in the assay are listed in Supplementary Table S2 online. A mixture of MIPs was adjusted according to its copy number in the precursor: MIP-I (five copies), MIP-II,V (two copies), MIP-III,IV,VI,VII (one copy each)[28].

[3] = system: pharate larvae; assay: ETH injection into pharate larvae, ecdysis behavior; assay type: in vivo, Bombyx mori; settings: pharate larvae injected with ETH at 8–15 h prior to ecdysis; fail to shed the old cuticle
Protocol: Under normal conditions, the ecdysis behavior lasts for ∼10 min and terminates immediately after the old cuticle is completely shed from the last abdominal segment. However, pharate larvae injected with ETH at 8–15 h prior to ecdysis fail to shed the old cuticle and show strong ecdysis contractions for 1–2 h. […] To determine a site of sensory input that terminates the ecdysis behavior, we peeled off a narrow ring of the old cuticle on abdominal segments 1, 3, 5 or 6 of late pharate 5th instar larvae 1–3 h prior to ecdysis. These larvae invariably initiated normal pre-ecdysis behaviors at the expected time and after ∼1 h switched to peristaltic waves of ecdysis contractions. […] In spite of presence of the old cuticle on the head, thorax and anterior abdomen, strong ecdysis contractions ceased immediately after the posterior cuticle was shed from the last abdominal segment in all larvae (n = 14).

For “SFIKPN.NVPRVa [PETH, pre-ecdysis triggering hormone, pre-ecdysis triggering hormone from B. mori, synthetic peptide]”, the EC50 ([1]; CHO-K1 cells co-expressing aequorin and chimeric Gqs alpha subunit, luminescence as % of maximum peak, mean of n = 3, read-out: EC50, BomETHR-A) was 9.43 nM, the “fold lower sensitivity of ETHR-A to PETH than to ETH” value ([1]; from concentration-response curves in CHO cells) was ~ 20 fold and the “time to burst patterns characteristic for pre-ecdysis I and II in dorsal and ventral nerves” value ([2]; 0.3–1 μM, n = 14) was 5 to 7 min.

“GQSNNNRGRVLRCFFNAVTCF-OH [AST-CC, allatostatin CC, allatostatin CC of Bombyx mori]” was tested, and the “time to onset of ecdysis bursts” value ([2]; desheathed CNS dissected 2–6 h prior to ecdysis, 0,3–1 μM, n = 14) was 5 to 12 min and the “response (ecdysis motor pattern) of earlier pharate or feeding stages” value ([2]; desheathed CNS, 0,3–1 μM, n = 9) was “irresponsive”.

With “NADLINSLLALPKDMNDAa [PDF, pigment dispersing factor, pigment dispersing factor of Bombyx mori]” the “time to onset of pre-ecdysis II bursts (asynchronous motoneuron activity) in ventral nerves of AG2-7” value ([2]; desheathed CNS, 0.3–1 μM, n = 8) was 3 to 5 min.

In the case of “SNEAISPFDQGMMGYVIKTNKNIPRMa [ETH, ecdysis triggering hormone, ecdysis triggering hormone from B. mori, synthetic peptide]”, the “duration of strong ecdysis contractions” value [3] is reported as 1 to 2 h, the “time to initiation of clear ecdysis bursts after ETH” value ([2]; desheathed CNS activated by ETH, n = 10) is reported as 27 to 35 min and the “duration of pre-ecdysis before switch to ecdysis motor patterns (ecdysis activation)” value ([2]; isolated CNS of pharate larvae treated with ETH, dorsal nerves AG4-7) is reported as ~ 40 min. For the same substance, the “time to burst patterns characteristic for pre-ecdysis I and II in dorsal and ventral nerves” value ([2]; 0.3–1 μM, n = 14) was 5 to 7 min.

AWQDLNSAWa [MIP-I] was tested, and the “ecdysis burst pattern, CCAP or MIPs applied alone” value ([2]; desheathed CNS) was “weak prolonged synchronous bursts or no rhythmic pattern”.

“PFCNAFTGCa [CCAP, crustacean cardioactive peptide]” was tested, and the “ecdysis burst pattern, CCAP or MIPs applied alone” value ([2]; desheathed CNS) was “less effective”.
